Patent publication US7166299B2, “Preparation of aqueous clear solution dosage forms with bile acids” (priority 1998, dated 2007)
Values after ≈ are worked out from the molar mass of the structure shown. Values joined by “and” are separate entries in the source; they are usually repeats but may differ in a detail not shown here. Identical values can stand only once.

Legend:
[1] = Solution stability test (HPLC) of mixed bile acids with maltodextrin in aqueous solution, Example II; format: physicochemical; settings: Table 2: pH 1, 50° C.
Protocol: (§1) The stability of dosage formulations of the invention were evaluated by measuring the concentration of the relevant bile acid over time in preparations comprising soluble bile acid, a high molecular weight aqueous soluble starch conversion product, and water at various pH and temperature levels. The retention time of each bile acid may be adjusted as needed to permit individual analysis each bile acid present in a complex samples, i.e. a sample having a plurality of bile acids.
(§2) The stability tests were conducted on three different aqueous solution systems: […].
(§3) The stability tests were performed with HPLC and microscope light at various pH conditions under the normal and accelerated conditions. Accelerated conditions for testing pharmaceutical compositions have been described (Remington, The Science and Practice of Pharmacy, 19th ed., p. 640). […] Thus, the formulations of the examples are suitable for preparing a commercial liquid dosage form. […] Some formulations remain stable for over 2 years.
(§4) For the solution stability test for each bile acid, HPLC was used to measure the concentration of the relevant soluble bile acid under the following conditions: the elution solvent of 0.02 M KH2PO4:acetonitrile in a ratio of 55:45, with a pH of 3.01, the flow rate was 0.8 mL/min., the injection volume was 20 μL, wave length for detection was 195 nm. In the tables, the concentration of the indicated bile acid salt for each of the three numbered trials and the average thereof is reported on each line. The percentage indicates the relative concentration of the bile acid salt after incubation for a certain amount of time in comparison with the initial concentration.
Into the resulting clear solution, maltodextrin was added with agitating at room temperature. Purified water was added to adjust the total volume to be 100 mL.

[2] = Solution stability test (HPLC) of single bile acid with maltodextrin in aqueous solution, Example I; format: physicochemical
Protocol: as §1, §2, §3, §4
100 mL of the aqueous solution in which one of the above bile acids is dissolved was prepared. Into the resulting clear solution, maltodextrin, a high molecular weight aqueous soluble starch conversion product, was added with agitation at room temperature. Purified water was added to adjust the total volume to be 100 mL. According to the instant invention and all examples, purified water is deionized, distilled deionized-distilled water, or a grade commonly used for pharmaceutical preparations.

[3] = cited from earlier work
[4] = Hematic levels of UDCA and glyco UDCA after oral administration of 200 mg UDCA aqueous solution to three healthy men (Example VI); format: in vivo, human; settings: male, human, in vivo, po, 200 mg
Protocol: The aqueous solution dosage forms, according to this invention, containing 200 mg of ursodeoxycholic acid (UDCA), were prepared according to the method described in the above-described Example III and were administered to three healthy men having normal body weight after fasting. The hematic levels of UDCA and glyco UDCA were evaluated by means of well known chemical methods. After applying buffered serum to sep-pak column, methanol eluate was derivatized with phenacyl bromide at 80° C. for 45 minutes. These phenacyl bromide derivatives were dissolved in acetonitrile in preparation for HPLC. The experimental results of the absorption measured at certain times after dosage administration include the total absorption expressed as the area under the serum concentration-time curve (AUC: μg/mL×hours), the maximum hematic concentration (Cmax; μg/mL) that has been obtained, and the time (Tmax; hour) in which said maximum concentration has been obtained.
The experimental pharmacokinetic tests of the aqueous solution dosage forms according to this invention carried out on men show substantial improvement in AUC, Cmax and Tmax in comparison with the best results from any dosage forms known presently.
Table 4A and Table 4B show plasma concentration of UDCA and GUDCA measured in 3 men over time following on oral administration of the UDCA and GUDCA containing formulations according to Example VI and comparison of results against results of others employing different pharmaceutical formulations of UDCA.

[5] = Table 1B: pH 10, 50° C., day 20

Structure (SMILES)	Percentage of day 0 concentration ([1]; day 0) [%]	Percentage of day 0 concentration ([1]; day 4) [%]	concentration by HPLC, Average ([1]; day 4)	concentration by HPLC, trials #1-#3 ([1]; day 4)	Percentage of day 0 concentration ([1]; day 7) [%]	concentration by HPLC, Average ([1]; day 7)	concentration by HPLC, trials #1-#3 ([1]; day 7)	Percentage of day 0 concentration ([1]; day 20) [%]	concentration by HPLC, Average ([1]; day 20)	concentration by HPLC, trials #1-#3 ([1]; day 20)	Percentage of day 0 concentration ([2]; Table 1A: pH 7, 50° C., day 0) [%]	Percentage of day 0 concentration ([2]; Table 1A: pH 7, 50° C., day 4) [%]	Percentage of day 0 concentration ([2]; Table 1A: pH 7, 50° C., day 7) [%]	Percentage of day 0 concentration ([2]; Table 1A: pH 7, 50° C., day 20) [%]	Percentage of day 0 concentration ([2]; Table 1B: pH 10, 50° C., day 0) [%]	Percentage of day 0 concentration ([2]; Table 1B: pH 10, 50° C., day 4) [%]	Percentage of day 0 concentration ([2]; Table 1B: pH 10, 50° C., day 7) [%]	Percentage of day 0 concentration [2, 5] [%]	solubility in the gastric juices and in aqueous hydrochloric acid solution [3]	also measured
C[C@H](CCC(=O)O)[C@H]1CC[C@H]2[C@@H]3[C@H](O)C[C@@H]4C[C@H](O)CC[C@]4(C)[C@H]3C[C@H](O)[C@]12C [CA, cholic acid (3α, 7α, 12α-trihydroxy-5β-cholanic acid)]	100.0	89.8	0.457	0.453 and 0.466	86.9	0.443	0.434 and 0.426 and 0.468	40.6	0.207	0.207 and 0.206	100.0	95.4	100.8	103.0	100.0	99.1	103.6	106.4		
C[C@H](CCC(=O)O)[C@H]1CC[C@H]2[C@@H]3[C@H](O)C[C@@H]4C[C@H](O)CC[C@]4(C)[C@H]3CC[C@]12C [CDCA, chenodeoxycholic acid (3α, 7α-dihydroxy-5β-cholanic acid)]	100.0	94.7	0.506	0.488 and 0.510 and 0.519	87.0	0.464	0.460 and 0.469 and 0.463	30.2	0.161	0.169 and 0.154	100.0	101.6	105.0	105.7	100.0	100.0	104.1	107.4	especially insoluble	concentration by HPLC, Average ([1]; day 0): 0.534; concentration by HPLC, trials #1-#3 ([1]; day 0): 0.560 and 0.528 and 0.513; concentration by HPLC, Average ([2]; Table 1A: pH 7, 50° C., day 0): 0.547; concentration by HPLC, trials #1-#3 ([2]; Table 1A: pH 7, 50° C., day 0): 0.572 and 0.539 and 0.530; concentration by HPLC, Average ([2]; Table 1A: pH 7, 50° C., day 4): 0.556; concentration by HPLC, trials #1-#3 ([2]; Table 1A: pH 7, 50° C., day 4): 0.540 and 0.552 and 0.576; concentration by HPLC, Average ([2]; Table 1A: pH 7, 50° C., day 7): 0.574; concentration by HPLC, trials #1-#3 ([2]; Table 1A: pH 7, 50° C., day 7): 0.581 and 0.588 and 0.553; concentration by HPLC, Average ([2]; Table 1A: pH 7, 50° C., day 20): 0.578; concentration by HPLC, trials #1-#3 ([2]; Table 1A: pH 7, 50° C., day 20): 0.565 and 0.608 and 0.560; concentration by HPLC, Average ([2]; Table 1B: pH 10, 50° C., day 0): 0.522; concentration by HPLC, trials #1-#3 ([2]; Table 1B: pH 10, 50° C., day 0): 0.541 and 0.532 and 0.495; concentration by HPLC, Average ([2]; Table 1B: pH 10, 50° C., day 4): 0.523; concentration by HPLC, trials #1-#3 ([2]; Table 1B: pH 10, 50° C., day 4): 0.511 and 0.519 and 0.538; concentration by HPLC, Average ([2]; Table 1B: pH 10, 50° C., day 7): 0.544; concentration by HPLC, trials #1-#3 ([2]; Table 1B: pH 10, 50° C., day 7): 0.564 and 0.527 and 0.540; concentration by HPLC, Average [2, 5]: 0.561; concentration by HPLC, trials #1-#3 [2, 5]: 0.556 and 0.569 and 0.558; solubility in the gastric pH range [3]: no longer soluble; solubility in water [3]: practically insoluble
C[C@H](CCC(=O)O)[C@H]1CC[C@H]2[C@@H]3CC[C@@H]4C[C@H](O)CC[C@]4(C)[C@H]3C[C@H](O)[C@]12C [DCA, deoxycholic acid (3α, 12α-dihydroxy-5β-cholanic acid)]																			especially insoluble	solubility ([3]; water): 240 µg/mL (≈ 611 µM)
C[C@H](CCC(=O)NCC(=O)O)[C@H]1CC[C@H]2[C@@H]3[C@@H](O)C[C@@H]4C[C@H](O)CC[C@]4(C)[C@H]3CC[C@]12C [GUDCA, glycoursodeoxycholic acid]																				AUC ([4]; AUC, mean): 4380 ± 1170 ng·h/mL; Cmax ([4]; individual men #1-#3): 1920 ng/mL; Cmax ([4]; mean): 1600 ng/mL; Tmax ([4]; Tmax, mean): 3.5 ± 1.5 h
C[C@H](CCC(=O)O)[C@H]1CC[C@H]2[C@@H]3C(=O)C[C@@H]4C[C@H](O)CC[C@]4(C)[C@H]3CC[C@]12C [KLCA, 7-ketolithocholic acid]	100.0	98.3	0.861	0.870 and 0.866 and 0.847	96.4	0.845	0.848 and 0.844 and 0.843	74.9	0.656	0.661 and 0.651	100.0	100.2	101.4	102.1	100.0	100.5	101.5	102.2	especially insoluble	concentration by HPLC, Average ([1]; day 0): 0.876; concentration by HPLC, trials #1-#3 ([1]; day 0): 0.883 and 0.877 and 0.869; concentration by HPLC, Average ([2]; Table 1A: pH 7, 50° C., day 0): 0.880; concentration by HPLC, trials #1-#3 ([2]; Table 1A: pH 7, 50° C., day 0): 0.888 and 0.879 and 0.874; concentration by HPLC, Average ([2]; Table 1A: pH 7, 50° C., day 4): 0.882; concentration by HPLC, trials #1-#3 ([2]; Table 1A: pH 7, 50° C., day 4): 0.871 and 0.887 and 0.888; concentration by HPLC, Average ([2]; Table 1A: pH 7, 50° C., day 7): 0.893; concentration by HPLC, trials #1-#3 ([2]; Table 1A: pH 7, 50° C., day 7): 0.897 and 0.893 and 0.888; concentration by HPLC, Average ([2]; Table 1A: pH 7, 50° C., day 20): 0.899; concentration by HPLC, trials #1-#3 ([2]; Table 1A: pH 7, 50° C., day 20): 0.893 and 0.909 and 0.894; concentration by HPLC, Average ([2]; Table 1B: pH 10, 50° C., day 0): 0.870; concentration by HPLC, trials #1-#3 ([2]; Table 1B: pH 10, 50° C., day 0): 0.879 and 0.874 and 0.857; concentration by HPLC, Average ([2]; Table 1B: pH 10, 50° C., day 4): 0.874; concentration by HPLC, trials #1-#3 ([2]; Table 1B: pH 10, 50° C., day 4): 0.870 and 0.873 and 0.880; concentration by HPLC, Average ([2]; Table 1B: pH 10, 50° C., day 7): 0.884; concentration by HPLC, trials #1-#3 ([2]; Table 1B: pH 10, 50° C., day 7): 0.893 and 0.876 and 0.882; concentration by HPLC, Average [2, 5]: 0.889; concentration by HPLC, trials #1-#3 [2, 5]: 0.887 and 0.893
C[C@H](CCC(=O)NCCS(=O)(=O)O)[C@H]1CC[C@H]2[C@@H]3[C@@H](O)C[C@@H]4C[C@H](O)CC[C@]4(C)[C@H]3CC[C@]12C [Tauroursodeoxycholic acid]																			especially insoluble	solubility in hydrochloric acid solution [3]: insoluble
C[C@H](CCC(=O)O)[C@H]1CC[C@H]2[C@@H]3C[C@H](O)[C@@H]4C[C@H](O)CC[C@]4(C)[C@H]3CC[C@]12C [hyodeoxycholic acid]																			especially insoluble	
C[C@H](CCC(=O)NCCS(=O)(=O)O)[C@H]1CC[C@H]2[C@@H]3[C@H](O)C[C@@H]4C[C@H](O)CC[C@]4(C)[C@H]3CC[C@]12C [taurochenodeoxycholic acid]																			especially insoluble	solubility in hydrochloric acid solution [3]: insoluble
